# Like-named read-outs stand apart in the source and are kept apart here.
# Key:
# [1] = target: T1, GHB-DH fusion protein (Cupriavidus necator, UniProt Q59104); type: biochemical, Ralstonia eutropha; parameters: made in house; host or cells: E. coli pLysS cells (Novagene), vector pGEX-2T/GHB-DH
# Method: A number of potential stabilizing agents were tested for their suitability in stabilizing a formulation of a GST fusion protein comprising the R. eutropha SSA reductase. Enzymatic activity of the purified fusion protein was studied after storage in different formulations for 21 days at 4° C. […] A range of concentrations of ammonium sulfate and glycerol were tested. […] GHB-DH may contain bound iron and copper ions (Wolf, 1995), which chelating agents can sequester and thereby denature and/or inactivate the oxidoreductase.
# Enzymatic assay for GHB based on formation of NADH. GHB-DH activity was assayed at 23° C. in 1 ml of buffer (97 mM 2-amino-2-methyl-1,3-propanediol (AMPD) adjusted to pH 8.5 with HCl) containing 14 μg purified fusion protein and 1 mM NAD^+ in a cuvette of 1 cm path length at 23° C. (Valentin, 1995). Reaction was initiated by the addition of GHB to 20 mM, and formation of NADH was monitored by the increase in absorbance at 334 nm (FIG. 4A).
# Stability of fusion protein. The GHB-DH enzymatic activity of R. eutropha GHB-DH fusion protein was studied after storage for 21 days at 4° C. under various conditions (FIG. 5). Fourteen μg of protein was assayed using the method described in Example 4. Test enzyme solutions included the crude lysate, purified fusion protein at 7 mg/ml in 50 mM NaCl and 30 mM MOPS adjusted to pH 7.4 with NaOH, and purified fusion protein at 7 mg/ml in the same buffer also containing potential stabilizing agents.
# [2] = target: purified GHB-DH fusion protein (Cupriavidus necator, UniProt Q59104); conditions: for weaker affinity for GHB-DH than GHB: ethanol relative to GHB
# [3] = target: T1, GHB-DH fusion protein; type: biochemical, Ralstonia eutropha; parameters: made in house; host or cells: E. coli pLysS cells (Novagene), vector pGEX-2T/GHB-DH; remark: listed apart in the source
# [4] = 150-pound person, cited from earlier work
# [5] = target: T1, GHB-DH fusion protein; assay: Detection of GHB in human urine on filter paper
# [6] = target: T2, R. eutropha GHB-DH (Cupriavidus necator, UniProt Q59104); assay: Economical dipstick assay for GHB in alcoholic beverages after evaporation
# [7] = target: T2, R. eutropha GHB-DH; type: biochemical, Ralstonia eutropha; parameters: made in house; host or cells: E. coli pLysS cells (Novagene), vector pGEX-2T/GHB-DH; conditions: 20 mM GHB in the same concentrations of ethanol
# [8] = test system: O=C(O)CCCO; assay: purified protein, by the assay type; conditions: other: GHB as substrate, 5 μg fusion protein, pH 8.5, 23° C.
# [9] = purified fusion protein 7 mg/ml, 21 days at 4° C.
compound,measurement,setting,value
"O[C@H](CS)[C@H](O)CS (racemic) [DTT, dithiothreitol]",effect of agent on enzyme activity during storage,[1]; [9],nearly completely inactivated enzyme activity
same,effect of agent on enzyme activity during storage,"[1]; purified fusion protein 7 mg/ml, 21 days at 4° C., listed as dithiothreitol",drastically diminished enzyme activity
"OCCS [BME, 2-mercaptoethanol]",effect of agent on enzyme activity during storage,[1]; [9],nearly completely inactivated enzyme activity
same,effect of agent on enzyme activity during storage,"[1]; purified fusion protein 7 mg/ml, 21 days at 4° C., listed as beta-mercaptoethanol",drastically diminished enzyme activity
"O=C(O)CN(CCN(CC(=O)O)CC(=O)O)CC(=O)O [EDTA, ethylene diamine tetraacetic acid]",effect of agent on enzyme activity during storage,[1]; [9],nearly totally inactivated enzyme activity
same,effect of agent on enzyme activity during storage,"[1]; purified fusion protein 7 mg/ml, 21 days at 4° C., listed as ethylene diamine tetraacetic acid",drastically diminished enzyme activity
"CCO [Ethanol, ethanol]",weaker affinity for GHB-DH than GHB,[2],about 200 fold
same,weaker affinity for GHB-DH than GHB,[2]; listed as ethanol,approximately 200 fold
same,color produced,[3]; all concentrations of ethanol tested,little or no color
"O=C(O)CCCO [GHB, 4-hydroxy-butanoic acid]",Vmax,[2]; GHB as substrate (FIG. 6A),0.049±0.001 A/min/μg
same,Vmax,"[2]; GHB as substrate, 5 μg fusion protein",0.049±0.001 Absorbance/min/μg fusion protein
same,effect in a person,[4]; 1-gram dose,low degree of effect
same,effect in a person,[4]; 2.5-gram dose,coma
same,color produced,[5]; 0.1 mM GHB in human urine,slight but definite purple
same,color produced,[5]; 0.3 mM GHB in human urine,substantial purple
same,GHB concentration in urine producing color,"[5]; human urine, dried or not dried, 5 minutes",≤ 0.1 mM
same,color developed,"[6]; 20 mM GHB in 25 alcoholic beverages, 2 minutes",intense purple color
same,GHB concentration detected in alcoholic beverages,"[6]; evaporated sample, 2 minutes reaction at 23° C.",≤ 1 mM
same,color produced on paper,[7],intense purple
same,GHB concentration readily detected,"[3]; conjugated filters, assay buffer, 23° C.",≤ 2 mM
N.N.O=S(=O)(O)O [ammonium sulfate],effect of agent on enzyme activity during storage,[1]; [9],somewhat deleterious
same,enzyme activity lost during storage,"[1]; range of concentrations of ammonium sulfate, 21 days at 4° C.",≥ 50%
OCC(O)CO [glycerol],effect of agent on enzyme activity during storage,"[1]; 5-20% glycerol, 4° C.",retained high degrees of enzyme activity
same,effect of agent on enzyme activity during storage,"[1]; 10% glycerol, 21 days, 4° C.",greatest retention
same,effect of agent on enzyme activity during storage,[1]; 50% glycerol at 4° C.,deleterious
oxidized glutathione,effect of agent on enzyme activity during storage,[1]; [9],drastically diminished enzyme activity
same,effect of agent on enzyme activity during storage,"[1]; purified fusion protein 7 mg/ml, 21 days at 4° C., listed as oxidized GSH",nearly totally inactivated enzyme activity
purified GHB-DH fusion protein (Cupriavidus necator),Km,[8],2190 ± 130 µM
reduced glutathione,effect of agent on enzyme activity during storage,[1]; [9],drastically diminished enzyme activity
same,effect of agent on enzyme activity during storage,"[1]; purified fusion protein 7 mg/ml, 21 days at 4° C., listed as reduced GSH",nearly totally inactivated enzyme activity

# Reference: patent US6703216B2, “Methods, compositions and apparatuses for detection of gamma-hydroxybutyric acid (GHB)” (priority 2002, dated 2004)
